The target of assay [1] is hGYS2 enzyme (recombinant hGYS2/GN1 protein) (Homo sapiens (Human), UniProt P54840). As to the kind of experiment: GYS2 coupled enzyme assay (PK/LDH). The assay is classed as biochemical. The settings on record: geometric mean of at least 2 assay runs on separate days, read-out: Avg_IC50. Summed up:
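Recombinant hGYS2/GN1 (200 nM) with 2 mM UDP-glucose, 0.2% rabbit liver glycogen, 2 mM glucose-6-phosphate; UDP coupled via PK/LDH (2 mM PEP, 0.6 mM NADH). Buffer 50 mM Tris pH 7.5, 2 mM MgCl2, 100 mM KCl, 2.5% DMSO. A340 slope over 10 min; IC50 from Hill fit of duplicates.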

Assay [2] concerns the target hGYS1 enzyme (recombinant hGYS1/GN1 protein) (Homo sapiens (Human), UniProt P13807). As to the kind of experiment: GYS1 coupled enzyme assay (PK/LDH). It is filed as biochemical. The note with it: hGYS1/GN1 50 nM, UDP-Glucose 0.8 mM, G6P 1 mM; geometric mean of at least 2 runs.
The subject of assay [3] is hGYS1 enzyme / glycogen synthesis in HeLa cells. Nature of the assay: GYS1 cell based assay (glycogen synthesis, Glucose-glo). The arrangement: species or system human. The note with it: 24 h incubation, 20 mM glucose, geometric mean of at least 2 runs. Summed up:
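HeLa cells starved 24 h in medium containing only 1× Glutamax were plated onto compound in medium with 20 mM glucose (1% DMSO final) for 24 h, 37 °C, 5% CO2. Acid lysates were Tris-quenched, glucoamylase-digested (pH 5.3, 1 h, 37 °C) and read by Glucose-glo luminescence. IC50 came from Hill fits, as geometric mean of ≥2 runs.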

Results on eight compounds are retold here after US11814367B2, “Inhibitors of glycogen synthase 1 (GYS1) and methods of use thereof” (Maze Therapeutics, Inc., priority 2021, dated 2023).

Chain of hGYS1 enzyme (recombinant hGYS1/GN1 protein) (P13807 whole entry): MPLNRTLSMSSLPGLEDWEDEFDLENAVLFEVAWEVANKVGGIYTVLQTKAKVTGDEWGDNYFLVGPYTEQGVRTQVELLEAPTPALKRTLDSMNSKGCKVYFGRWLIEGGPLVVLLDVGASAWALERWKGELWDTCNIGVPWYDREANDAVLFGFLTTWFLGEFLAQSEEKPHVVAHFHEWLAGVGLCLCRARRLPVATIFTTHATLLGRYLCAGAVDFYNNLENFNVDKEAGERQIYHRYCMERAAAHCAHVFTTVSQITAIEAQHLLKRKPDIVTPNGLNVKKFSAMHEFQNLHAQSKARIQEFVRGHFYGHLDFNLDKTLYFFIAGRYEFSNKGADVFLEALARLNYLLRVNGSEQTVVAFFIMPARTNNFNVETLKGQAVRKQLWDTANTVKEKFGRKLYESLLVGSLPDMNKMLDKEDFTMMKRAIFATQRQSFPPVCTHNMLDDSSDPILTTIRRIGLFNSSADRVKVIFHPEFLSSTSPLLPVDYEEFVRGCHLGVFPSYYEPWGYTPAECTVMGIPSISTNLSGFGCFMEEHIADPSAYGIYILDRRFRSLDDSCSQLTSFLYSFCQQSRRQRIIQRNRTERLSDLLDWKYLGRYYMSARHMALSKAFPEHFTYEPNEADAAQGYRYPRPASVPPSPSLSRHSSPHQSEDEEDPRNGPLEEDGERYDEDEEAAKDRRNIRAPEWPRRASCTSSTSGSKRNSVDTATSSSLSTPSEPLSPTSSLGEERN
Chain of hGYS1 enzyme (recombinant hGYS1/GN1 protein) (P46976 whole entry partner): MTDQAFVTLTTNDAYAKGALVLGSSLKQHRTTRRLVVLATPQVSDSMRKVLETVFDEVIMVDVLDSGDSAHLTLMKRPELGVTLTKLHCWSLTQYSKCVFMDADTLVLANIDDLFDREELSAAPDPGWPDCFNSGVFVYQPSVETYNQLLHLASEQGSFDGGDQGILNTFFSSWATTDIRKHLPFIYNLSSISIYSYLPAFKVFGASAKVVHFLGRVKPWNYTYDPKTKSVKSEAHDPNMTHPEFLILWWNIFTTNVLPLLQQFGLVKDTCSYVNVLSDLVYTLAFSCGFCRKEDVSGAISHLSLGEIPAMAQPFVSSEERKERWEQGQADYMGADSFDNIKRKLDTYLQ
Chain of hGYS2 enzyme (recombinant hGYS2/GN1 protein) (P54840 whole entry): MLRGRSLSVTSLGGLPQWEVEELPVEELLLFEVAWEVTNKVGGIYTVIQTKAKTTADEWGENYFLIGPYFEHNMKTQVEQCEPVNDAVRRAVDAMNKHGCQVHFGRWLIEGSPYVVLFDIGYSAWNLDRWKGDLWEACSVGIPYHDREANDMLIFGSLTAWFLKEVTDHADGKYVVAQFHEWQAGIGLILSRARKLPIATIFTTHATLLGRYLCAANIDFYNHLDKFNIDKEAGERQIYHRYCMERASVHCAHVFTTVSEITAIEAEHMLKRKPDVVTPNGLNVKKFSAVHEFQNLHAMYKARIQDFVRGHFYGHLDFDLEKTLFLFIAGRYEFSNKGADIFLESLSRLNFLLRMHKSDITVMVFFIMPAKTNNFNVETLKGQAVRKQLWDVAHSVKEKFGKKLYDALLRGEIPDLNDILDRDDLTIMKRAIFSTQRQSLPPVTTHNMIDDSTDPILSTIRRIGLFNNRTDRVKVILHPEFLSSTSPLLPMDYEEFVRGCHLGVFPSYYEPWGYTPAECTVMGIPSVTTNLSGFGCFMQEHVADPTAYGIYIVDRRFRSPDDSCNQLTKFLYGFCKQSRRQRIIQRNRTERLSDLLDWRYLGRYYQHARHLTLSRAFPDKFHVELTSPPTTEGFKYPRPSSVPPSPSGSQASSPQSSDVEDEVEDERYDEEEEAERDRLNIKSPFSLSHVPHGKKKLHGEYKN
Chain of hGYS2 enzyme (recombinant hGYS2/GN1 protein) (P46976 whole entry partner): as the sequence (P46976 whole entry partner) above

Regarding `O=C(NC(c1ccccc1)c1ccc(C2CC2)cn1)[C@@H]1C[C@@H](F)CN1C(=O)Cc1cnn[nH]1` (single isomer, unassigned) [Compound 497, (2S,4R)-1-(2-(1H-1,2,3-triazol-5-yl)acetyl)-N—((S) or (R)-(5-cyclopropylpyridin-2-yl)(phenyl)methyl)-4-fluoropyrrolidine-2-carboxamide], the IC50 was > 100000 nM in assay [1]; 369 nM in assay [2]; > 5670 nM in assay [3] (Homo sapiens, HeLa, 24 h).
For `CC(C(=O)N1C[C@H](F)C[C@H]1C(=O)N[C@@H](c1ccccc1)c1ccc(C2(C)CC2)c(F)c1)n1cnc2ccccc21` (single isomer, unassigned) [Compound 567, (2S,4R)-1-[(2R) or (2S)-2-(1H-1,3-benzodiazol-1-yl)propanoyl]-4-fluoro-N-[(S)-[3-fluoro-4-(1-methylcyclopropyl)phenyl](phenyl)methyl]pyrrolidine-2-carboxamide], the IC50 in assay [1] was > 100000 nM; in assay [2] it was 642 nM; in assay [3] it was 11500 nM.
Taken in the same sequence, the figures for `CC(C(=O)N1C[C@H](F)C[C@H]1C(=O)N[C@@H](c1ccccc1)c1ccc(C2(C)CC2)c(F)c1)n1cnc2ccccc21` (single isomer, unassigned) [Compound 574, (2S,4R)-1-[(2S) or 2R)-2-(1H-1,3-benzodiazol-1-yl)propanoyl]-4-fluoro-N-[(S)-[3-fluoro-4-(1-methylcyclopropyl)phenyl](phenyl) methyl]pyrrolidine-2-carboxamide] were > 100000 nM, 22 nM and 200 nM.
For `CC(C(=O)N1C[C@H](F)C[C@H]1C(=O)N[C@@H](c1ccccc1)c1ccc(C2(C)CC2)c(F)n1)n1cnc2ccccc21` (single isomer, unassigned) [Compound 586, (2S,4R)-1-((S) or (R)-2-(1H-benzo[d]imidazol-1-yl)propanoyl)-4-fluoro-N—((S)-(6-fluoro-5-(1-methylcyclopropyl)pyridin-2-yl)(phenyl)methyl)pyrrolidine-2-carboxamide] the same measures were > 100000 nM, 10 nM and 150 nM.
Take `CC(C)c1ccc([C@@H](NC(=O)[C@@H]2C[C@@H](F)CN2C(=O)Cc2nn(C)c(=O)n2C)c2ccccc2)nc1F` [Compound 779, (2S,4R)-1-[2-(1,4-dimethyl-5-oxo-4,5-dihydro-1H-1,2,4-triazol-3-yl)acetyl]-4-fluoro-N-[(S)-[6-fluoro-5-(propan-2-yl)pyridin-2-yl](phenyl)methyl] pyrrolidine-2-carboxamide]: the IC50 in assay [1] was > 100000 nM; in assay [3] (Homo sapiens, HeLa, 24 h) it was 330 nM.
For `CCn1ccnc(CC(=O)N2C[C@H](F)C[C@H]2C(=O)N[C@@H](c2ccccc2)c2ccc(C(C)C)c(F)n2)c1=O` [Compound 806, (2S,4R)-1-[2-(4-ethyl-3-oxo-3,4-dihydropyrazin-2-yl)acetyl]-4-fluoro-N-[(S)-[6-fluoro-5-(propan-2-yl)pyridin-2-yl](phenyl)methyl] pyrrolidine-2-carboxamide], the IC50 was 6 nM in assay [2] and 90 nM in assay [3] (Homo sapiens, HeLa, 24 h).
For `CC(C)c1ccc([C@@H](NC(=O)[C@@H]2C[C@@H](F)CN2C(=O)Cn2nncc2N2CC(F)(F)C2)c2ccccc2)nc1F` [Compound 807, (2S,4R)-1-{2-[5-(3,3-difluoroazetidin-1-yl)-1H-1,2,3-triazol-1-yl]acetyl}-4-fluoro-N-[(S)-[6-fluoro-5-(propan-2-yl)pyridin-2-yl](phenyl)methyl] pyrrolidine-2-carboxamide] the same measures were 19 nM and 450 nM.
On to “(2S,4R)-4-fluoro- N-[(S) or (R)-[6- fluoro-5-(propan- 2-yl)pyridin-2- yl][3-(1,2-oxazol-5- yl)phenyl]methyl]- 1-[2-(1H-1,2,3- triazol-5- yl)acetyl]pyrrolidine- 2-carboxamide [Compound 694]”, for which the results for the IC50 in assay [2] and in assay [3] were 34 nM and 1210 nM, respectively.
